Assay results: ChEMBL document CHEMBL3244265, “Preparation and biological actions of some symmetrically N,N-disubstituted dopamines” (J Med Chem, 1978)
Activity calls are given as the source filed them. No cut-off for these calls is given here.

Legend:
Canis familiaris [1] = test: Toxicity in dog up to 2 mg/kg, sc; assay type: organism-based, Canis lupus familiaris; set-up: dose 2 mg/kg, route subcutaneous; conditions: in vivo
Canis familiaris [2] = species on record: Canis familiaris; test: Inhibition of cardioaccelerator nerve stimulation in dog in presence of phentolamine; assay type: functional, organism-based; conditions: Canis lupus familiaris
Rattus norvegicus [3] = test: Induction of stereotyped behaviour in intrastriatally dosed Sprague-Dawley rat at 3.13 to 50 ug administered into nucleus accumbens; assay type: functional, organism-based
Felis catus [4] = species on record: Felis catus; test: Agonist activity at dopamine receptor in cat right atrium assessed as inhibition of cardiaccelerator nerve stimulation rate by cardiotachometer analysis; assay type: tissue-based; conditions: Cardiac atrium
Felis catus [5] = test: Inhibition of 2 Hz electric current-induced cardioaccelerator nerve stimulation in iv dosed cat by cardiotachometer analysis in presence of 0.2 mg/kg, iv haloperidol; assay type: functional, organism-based; set-up: dose 0.2 mg/kg; conditions: at 0.2 mg/kg
Felis catus [6] = test: Inhibition of 10 Hz electric current-induced cardioaccelerator nerve stimulation in iv dosed cat by cardiotachometer analysis; assay type: functional, organism-based
Columba livia [7] = test: Antagonism of apomorphine-induced pecking in im dosed pigeon treated 15 mins prior to apomorphine challenge; assay type: functional
Canis familiaris [8] = test: Induction of emesis in sc dosed dog; assay type: functional; conditions: Canis lupus familiaris
Felis catus [9] = test: Inhibition of 2 Hz electric current-induced cardioaccelerator nerve stimulation in iv dosed cat by cardiotachometer analysis in presence of 2 mg/kg, iv phentolamine; assay type: functional, organism-based; set-up: dose 2 mg/kg; conditions: at 2 mg/kg
Rattus norvegicus [10] = test: Induction of hyperactivity in Sprague-Dawley rat at 3.13 to 50 ug administered into caudate putamen; assay type: functional, organism-based
Columba livia [11] = test: Induction of pecking in im dosed pigeon; assay type: functional, organism-based
Rattus norvegicus [12] = test: Induction of stereotyped behaviour in intrastriatally dosed Sprague-Dawley rat at 3.13 to 50 ug administered into caudate putamen; assay type: functional, organism-based
Rattus norvegicus [13] = test: Induction of hyperactivity in Sprague-Dawley rat at 3.13 to 50 ug administered into nucleus accumbens; assay type: functional, organism-based
Rattus norvegicus [14] = test: Induction of circling behaviour in Sprague-Dawley rat at 2.5 to 20 mg/kg, sc; assay type: functional, organism-based
Rattus norvegicus [15] = test: Induction of hyperactivity in Sprague-Dawley rat at 2.5 to 20 mg/kg, sc; assay type: functional, organism-based
Felis catus [16] = test: Effect on heart rate in iv dosed cat; assay type: functional, organism-based
Felis catus [17] = test: Inhibition of 2 Hz electric current-induced cardioaccelerator nerve stimulation in iv dosed cat by cardiotachometer analysis; assay type: functional
Canis familiaris [18] = test: Antagonism of apomorphine-induced emesis in sc dosed dog treated 15 mins prior to apomorphine challenge; assay type: functional, organism-based; conditions: Canis lupus familiaris
Rattus norvegicus [19] = test: Induction of stereotyped behaviour in Sprague-Dawley rat at 2.5 to 20 mg/kg, sc; assay type: functional, organism-based
Felis catus [20] = test: Inhibition of 2 Hz electric current-induced cardioaccelerator nerve stimulation in cat at 10 umol/kg, iv by cardiotachometer analysis; assay type: functional, organism-based
Felis catus [21] = test: Hypotensive activity in iv dosed cat; assay type: functional, organism-based
Felis catus [22] = species on record: Felis catus; test: Agonist activity at dopamine receptor in cat right atrium assessed as inhibition of cardiaccelerator nerve stimulation rate at 10 umol/L by cardiotachometer analysis; assay type: tissue-based; conditions: Cardiac atrium
Rattus norvegicus [23] = test: Induction of circling behaviour in sc dosed Sprague-Dawley rat in presence of 5 mg/kg propranolol; assay type: functional, organism-based; set-up: dose 5 mg/kg
Rattus norvegicus [24] = test: Induction of circling behaviour in sc dosed Sprague-Dawley rat assessed as reversal of spontaneous ipsilateral to contralateral circling response; assay type: functional, organism-based
Rattus norvegicus [25] = test: Induction of circling behaviour in sc dosed Sprague-Dawley rat in presence of 0.8 mg/kg haloperidol; assay type: functional, organism-based; set-up: dose 0.8 mg/kg
Rattus norvegicus [26] = test: Induction of circling behaviour in sc dosed Sprague-Dawley rat assessed as onset of action; assay type: functional
Rattus norvegicus [27] = test: Induction of circling behaviour in sc dosed Sprague-Dawley rat assessed as duration of action; assay type: functional
Rattus norvegicus [28] = test: Induction of stereotyped behaviour in sc dosed Sprague-Dawley rat assessed as onset of action; assay type: functional
Rattus norvegicus [29] = test: Induction of circling behaviour in sc dosed Sprague-Dawley rat in presence of 5 mg/kg aceperone; assay type: functional, organism-based; set-up: dose 5 mg/kg
Columba livia [30] = test: Induction of pecking in pigeon at 1.62 umol/kg, im; assay type: functional, organism-based
Rattus norvegicus [31] = test: Induction of stereotyped behaviour in sc dosed Sprague-Dawley rat assessed as duration of action; assay type: functional
Rattus norvegicus [32] = test: Induction of stereotyped behaviour in sc dosed Sprague-Dawley rat; assay type: functional, organism-based

SMILES	Activity (Rattus norvegicus [3])	ED50 (Felis catus [4]) [nM]	inhibition (Felis catus [5])	inhibition (Felis catus [6])	ED50 (Canis familiaris [8])	Activity (Rattus norvegicus [10])	Activity (Columba livia [11])	Activity (Rattus norvegicus [12])	Activity (Rattus norvegicus [13])	Activity (Rattus norvegicus [14])	Activity (Rattus norvegicus [15])	Activity (Felis catus [16])	ED50 (Felis catus [17]) [µmol/kg]	Activity (Rattus norvegicus [19])	other results
CN(C)CCc1ccc(O)c(O)c1	inactive	70	inactive	inactive	inactive	inactive	inactive	inactive	inactive	inactive	inactive	inactive	0.024	inactive	Activity (Canis familiaris [1]): Non-toxic; inhibition (Canis familiaris [2]): inactive; ED50 (Columba livia [7]): 9.7 µmol/kg; inhibition (Felis catus [9]): inactive; inhibition (Canis familiaris [18]): inactive
CCCCN(CCCC)CCc1ccc(O)c(O)c1	inactive	–	–	inactive	–	inactive	inactive	inactive	inactive	inactive	inactive	inactive	–	inactive	inhibition (Felis catus [20]): inactive; Activity (Felis catus [21]): inactive; inhibition (Felis catus [22]): inactive
CN1CCc2cccc3c2[C@H]1Cc1ccc(O)c(O)c1-3.CN1CCc2cccc3c2[C@H]1Cc1ccc(O)c(O)c1-3.Cl.Cl.O [APOMORPHINE HYDROCHLORIDE]	–	43	inactive	–	0.13 µmol/kg	–	–	–	–	–	–	–	0.1	–	Activity (Rattus norvegicus [23]): Active; Activity (Rattus norvegicus [24]): Active; Activity (Rattus norvegicus [25]): inactive; Time (Rattus norvegicus [26]): 3 min; Time (Rattus norvegicus [27]): 40 min; Time (Rattus norvegicus [28]): <5 min; Activity (Rattus norvegicus [29]): Active; Activity (Columba livia [30]): Active; Time (Rattus norvegicus [31]): 20 min; Activity (Rattus norvegicus [32]): Dose-dependent effect
